Results reported in patent US20240000754A1, “METHODS OF TREATMENT OF LIVER FAILURE” (GENFIT, priority 2020, published 2024).

Key:
[1] = tested on: rats with CCl4+LPS-induced ACLF; assay: Example 9: CCl4+LPS-induced acute-on-chronic liver failure in rats; assay type: in vivo
Procedure: This study included 4 phases: • 1) Pre-sensitization phase: phenobarbital ([…]) (ref P5178-25G, Sigma-Aldrich) was added to the drinking water of 4-week-old male Sprague-Dawley rats (˜200 g) for 2 weeks prior to CCl4 administration • 2) Induction phase: hepatic severe fibrosis was induced by repeated oral tetrachlorure (CCl4) administrations (twice a week, increasing doses from 0.10 to 0.85 ml/kg, twice weekly) for 10 or 15 weeks, with the same protocol as the protocol described in example 8. • 3) Treatment phase: after 15 weeks of CCl4 administrations, gavage was stopped one week before LPS administration. […] A last dose (50 mg/kg) was administered 30 minutes just before ACLF induction. • 4) ACLF induction: LPS was administrated i.p. at 0.03 mg/kg.
LPS solution (Escherichia coli O111:64, Sigma-Aldrich, Germany) was prepared under a microbiological safety cabinet and was dissolved in phosphate buffer saline (PBS) at 15 μg/mL, aliquoted and frozen until the day of experiment. LPS was administered at 2 m L/kg to the rats.
38 male Sprague-Dawley rats (Janvier Labs, France) have been allocated to this study. Animals had ad libitum access to water and chow diet (ref E15000-04, Ssniff, Germany) all along the study. After 9 weeks of CCl4 administration, animals were randomly allocated to 2 groups according to ammonia and albumin plasmatic levels (in order to have similar means in the two groups).
ACLF was evaluated, at the end of the study, by biochemical analyses of hepatic and renal injury or function biomarkers.
At the end of the study, blood was collected by sublingual vein puncture under light isoflurane anesthesia and transferred to ethylenediamine tetra-acetic acid (EDTA), serum-gel, and lithium heparin tubes. EDTA and lithium heparin tubes containing blood were rapidly centrifuged and the plasma fraction was collected. Plasma aliquot of heparin lithium were snap frozen in liquid nitrogen and stored at −80° C., EDTA-plasma aliquots were stored at −20° C. and serum-gel tubes were kept at room temperature for 30 minutes, centrifuged and stored at −20° C.
Experimental results are expressed as mean±standard deviation and plotted as bar graphs. Comparison between groups was tested using a Student T test for all variables that follows a normal distribution (#: p<0.05; ##: p<0.01; ###: p<0.001). A Welsh test was applied in case of different variances between groups (3a: p<0.05; cm: p<0.01; man: p<0.001). A log-transformation was applied for plasma ALT and AST in all samples to obtain a normal data distribution. For other non-normally distributed variables, a non-parametric Mann-Whitney test was applied ($: p<0.05; $$: p<0.01; $$$: p<0.001). Differences to the Ctrl week 10 (W10) group are notified, if not otherwise specified.

[2] = tested on: cirrhotic rats after LPS injection (ACLF); assay: ACLF model: LPS injection in TAA-cirrhotic rats; assay type: in vivo
Procedure: Male Sprague Dawley rats (175-200 g) (Janvier Labs, France) received intraperitoneal injections of thioacetamide (TAA) 3 times a week at the dose of 150 mg/kg during the first week and then at 200 mg/kg during 14 weeks to induce cirrhosis. Rats were stratified to treatment groups (n=5 per group) based on mean plasma levels of fibrosis markers (alpha-2 macroglobulin and Metallopeptidase Inhibitor 1 (TIMP1)) and liver function tests (plasma total bile acid and albumin) obtained from sublingual blood sampling.
After cirrhosis induction, rats received a single intraperitoneal injection of 0.05 mg/kg lipopolysaccharide (LPS from Escherichia coli O111:64, Sigma-Aldrich) to induce ACLF, one week after TAA administration was stopped. […] Plasma were obtained from sublingual blood sampling just before sacrifice.
The concentration of total bile acids was measured using the appropriate Randox kit for Daytona Plus automate (Randox, cat #BI 3863). In the presence of Thio-NAD, the enzyme 3-alpha hydroxysteroid dehydrogenase (3-a HSD) converts bile acids to 3-keto steroids and Thio-NADH. The reaction is reversible and 3-a HSD could convert 3-keto steroids and Thio-NADH to bile acids and Thio-NAD. In the presence of excess NADH, the enzyme cycling occurs efficiently and the rate of formation of Thio-NADH is determined by measuring specific change of absorbance at 405 nm.

HepG2 cells = assay: NH4Cl-induced mortality in HepG2 cells (CytoTox-Glow dead cell protease activity); assay type: cell-based, human; settings: HepG2, NTZ 0-5 μM, 60 mM and 120 mM NH4Cl, 14 hours
Procedure: After cell adherence (10 hours), cells were washed with PBS and were incubated in the presence of 0, 60, or 120 mM of NH4Cl (Fluka, France) in DMEM without L-Glutamine and FBS for 14 hours.
Cytotoxicity was measured using CytoTox-Glow™ assay (#G9291, Promega, USA). Briefly, 100 μL of reagent was added per well, and the plates were incubated in the dark at room temperature for 15 min. The CytoTox-Glow™ Assay is a luminescent cytotoxicity assay that measures the relative number of dead cells in cell populations. Luminescence was measured using a Spark microplate reader (#30086376, Tecan, USA). The amount of luminescence (RLU) directly correlates with the percentage of cells undergoing cytotoxic stress.

[3] = tested on: rats with BDL+LPS-induced ACLF; assay: Brain edema in BDL+LPS-induced ACLF in rats; assay type: in vivo; settings: LPS 1 μg/kg i.p., NTZ 100 mg/kg gavage just before LPS, 3 hours post-LPS
Procedure: BDL surgery was performed on 37 Sprague Dawley rats weighing approximately 270 g at Charles River laboratory (France). After anesthesia with isoflurane (Vetflurane, Alcyon, France), and cutaneous application of 2% lidocaine (Alcyon), a median laparotomy was performed to expose the liver and duodenum. The main bile duct was identified and dissected. After that, the bile duct was ligated in two parts: a first ligation was made in the middle of the bile duct, and the second ligation was made above the entrance of the pancreatic duct. The bile duct was then cut in the middle, to avoid recanalization.
The animals were then transferred to Genfit's animal facility (France) after a minimum of 5 days of recovery post-surgery. […] Unoperated animals were included in the study as healthy controls.
Twenty-two days after BDL surgery, acute decompensation was induced by intraperitoneal administration of 1 μg/kg LPS (Escherichia coli O111:64, Sigma-Aldrich, Germany). Four rats with BDL received phosphate buffer saline (PBS, Fisher Scientific, USA) instead of LPS to be used as BDL controls. Each animal was continuously observed following LPS injection in order to assess the degree of severity of the inflammatory response and pain. […]

[4] = tested on: hepatic transcriptome of mice; assay: Hepatic transcriptomic analysis (RNA-seq) in CDAA/c diet-fed mice treated with NTZ; assay type: in vivo; settings: NTZ 100 mg/kg/day versus CDAA/c alone, adjusted p=2.6×10-13
Procedure: Liver injury was induced in 5-6 week-old male C57Bl/6 mice (Janvier Labs, France) by feeding them a cholesterol (1%) supplemented choline-deficient L-amino acid-defined diet (CDAA/c) (Ssniff, Germany) for 12 weeks (n=12). Some animals received from day 1 and throughout the study CDAA/c diet supplemented with NTZ (Interchim, France) (100 mg/kg/day) (n=8). Mice receiving choline supplemented L-amino acid-defined (CSAA) diet served as additional controls (n=6).
Total RNA was isolated from mice livers using Nucleospin® 96 RNA kit (ref 740709.4, Macherey Nagel, France) (n=5). Upon measurement of RNA samples concentration by Multiskan™ GO spectrophotometer (Thermo Scientific, France), the quality was assessed using 2100 Bioanalyser from Agilent (USA). […]
Then reads were aligned on the genome reference (Mus musculus GRCm38.90—GenBank assembly accession GCA_000001635.2) with rnacocktail using hisat2 v.2.1.0 as aligner with default parameters (Sahraeian et al. Nature communications 2017). […]
To identify differentially expressed genes (DE genes), we used R (version 3.4.3) and the DESEq2 library (v. 1.18.1). […] Briefly, the count matrix produced by FeatureCounts was analyzed by the DESeqDataSetFromMatrix( ) function followed by the DEseq( ) function from the DESeq2 library. […]

[5] = tested on: TAA induced cirrhosis in rats; assay: TAA-induced cirrhosis in rats: liver function and fibrosis; assay type: in vivo; settings: 16 weeks TAA
[6] = tested on: rats with BDL+LPS-induced ACLF; assay: Kidney function in BDL+LPS-induced ACLF in rats; assay type: in vivo; settings: NTZ 100 mg/kg gavage, 3 hours post-LPS
Procedure: BDL surgery of rats and acute decompensation were performed as in the previous example.
Renal injury was evaluated by serum cystatin C concentrations determined by ELISA (Mouse/Rat Cystatin C Immunoassay Quantikine® ELISA, MSCTC0, R&D Systems).

[7] = tested on: rats with CCl4+LPS-induced ACLF; assay: Example 8: renal function markers in CCl4+LPS-induced ACLF in rats; assay type: in vivo; settings: 15 weeks CCl4 + LPS, NTZ 50 mg/kg BID 3 days, 24 h after LPS
Procedure: Cirrhosis decompensation often associates with alterations of kidney functions. […] Briefly, ACLF was induced by lipopolysaccharide (LPS) injection in rats with advanced liver fibrosis/cirrhosis induced by repeated carbon tetrachloride (CCl4) administrations for 15 weeks.
The protocol study included 4 phases: • 1) Pre-sensitization phase: phenobarbital (P5178, Sigma Aldrich) was added to the drinking water ([…]) of 32 4-week-old male Sprague-Dawley rats (˜200 gr, Janvier Lab) for 2 weeks in order to activate cytochrome enzymes that metabolize CCl4. • 2) Induction of liver fibrosis: chronic liver damages were induced by repeated (twice a week) oral CCl4 (ref: 289116, Sigma Aldrich; diluted in olive oil) administrations (increasing doses starting with 0.10 ml/kg, adding 0.05-0.10 ml/kg at each administration to reach 0.85 ml/kg at 7 weeks and thereafter) for up to 15 weeks, with final doses as follows:
• 3) Treatment phase: after 15 weeks of CCl4 administration, CCl4 gavage was stopped one week before LPS administration.
During the first hours following LPS administration, each animal was continuously observed in order to assess the degree of severity of the inflammatory response and pain. The appearance of the animal (change in fur, skin color), the degree of activity and vigilance (response to a stimulus, opening of the eyelids, activity . . . ), gait and attitude were monitored. Any animal showing evident signs of suffering and close to death was euthanized. […] All surviving animals were euthanized 24 h after LPS challenge for plasma and tissue analyses. […]
Renal injury was evaluated by plasma creatinine, urea and cystatin C concentrations. Plasma creatinine and urea concentrations were measured using the appropriate Randox kits (CR 8316, UR 8334, respectively) for Daytona plus automate (Randox, cat #BR 8377) using the manufacturer instructions. Plasma cystatin C concentration was determined by ELISA (Mouse/Rat Cystatin C Immunoassay Quantikine® ELISA, MSCTC0, R&D Systems).

[8] = tested on: mice with acetaminophen (APAP) intoxication; assay: Acetaminophen-induced acute liver failure in mice; assay type: in vivo; settings: APAP 300 mg/kg i.p., NTZ 50 mg/kg gavage 30 minutes before, 6 hours after APAP
Procedure: Acute liver failure was induced by administration of toxic dose of acetaminophen (APAP) in mice. After a 5-day acclimation period, 8 week-old C57BL/6J male mice (Janvier, France) were stratified into 3 groups of 10 mice according to their body weight. All mice were fasted overnight before the administration of 300 mg/kg APAP by intraperitoneal injection. […] Mice had free access to food and water right after APAP injection. Six hours after APAP injection, blood was collected in all mice on heparin by retro-orbital sinus punction under anesthesia. Liver injury was assessed by plasma aspartate aminotransferase (AST) determined using a Horiba Pentra 400 machine and related Pentra assay kit (Horiba France SAS, France). Animals were sacrificed 24 hours post-APAP administration by cervical dislocation, exsanguinated with saline and liver samples were collected and weighed.

[9] = NTZ 30 mg/kg/day in diet for last 4 weeks, versus TAA control

CC(=O)Oc1ccccc1C(=O)Nc1ncc([N+](=O)[O-])s1 [NTZ, nitazoxanide]
Survival 24 h after LPS injection ([1]; rats, 15 weeks CCl4 + LPS 0.03 mg/kg i.p., NTZ 50 mg/kg BID 3 days, same in vehicle group): 60% | Reduction of serum IFNγ ([1]; rats, CCl4 15 weeks and LPS, p=0.04): 56% | Mortality over 24 hours ([1]; rats, CCl4 + LPS, NTZ 50 mg/kg BID 3 days, same in vehicle group (4/10 rats)): 40% | Change of plasma urea ([1]; surviving rats 24 hours post-LPS, LPS-induced renal impairment, p=0.002): −92% | Change of plasma creatinine ([1]; surviving rats 24 hours post-LPS, LPS-induced renal impairment, p=0.009): −102% | Change of plasma cystatin C ([1]; surviving rats 24 hours post-LPS, LPS-induced renal impairment, p=0.02): −166% | Reduction of plasma AST ([1]; surviving rats 24 hours post-LPS, NTZ versus vehicle, p=0.005): 87% | Reduction of plasma ALT ([1]; surviving rats 24 hours post-LPS, NTZ versus vehicle, p=0.007): 80% | Reduction of total bilirubin ([1]; surviving rats 24 hours post-LPS, plasma, p=0.02): 80% | Restoration of albumin production ([1]; surviving rats 24 hours post-LPS, plasma, p=0.04): 95% | Plasma GGT level ([1]; surviving rats 24 hours post-LPS, LPS vehicle 11.2 U/I): < 6.15 U/I | Circulating (plasma total) bile acids level ([2]; TAA-cirrhotic rats after ACLF induction by LPS, versus vehicle): reduced | Delay of time to death ([2]; TAA-cirrhotic rats, LPS 0.05 mg/kg i.p., NTZ oral gavage 50 mg/kg/day BID 3 days plus last dose 30 minutes before LPS): 1 h | Mortality rate (dead cell protease activity) (HepG2 cells): reduced the mortality rate in a dose-dependent manner | Brain water (brain edema, % of water contained in brain) [3]: remarkably reduced | Induction of GluI expression [4]: 1.6 fold | Collagen proportionate area ([5]; NTZ 30 mg/kg/day for last 4 weeks, TAA control 7.74±0.38%, p=0.77): 7.53±0.64% | Plasma albumin [5, 9]: rescued | Plasma total bilirubin [5, 9]: drastically decreased | Serum cystatin C [6]: drastically reduced cystatin C, almost to the level of healthy controls | Plasma creatinine [7]: restoring creatinine, urea and cystatin C levels to the levels of the olive oil controls | Plasma cystatin C [7]: restoring creatinine, urea and cystatin C levels to the levels of the olive oil controls | Plasma urea [7]: restoring creatinine, urea and cystatin C levels to the levels of the olive oil controls | Plasma AST [8]: greatly reduced AST to a level similar to that with NAC
